This note sets out measurements from ChEMBL document CHEMBL1201862, “PubChem BioAssay data set” (2004).

Test systems include HOP-18; RXF 631; DMS-273; SNB-78; M19-MEL; KM-20L2; LXFL 529; XF498; DMS-114.
What all share (experiment): inhibition of tumour cell growth, NCI panel, 48 h

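Five compound concentrations were applied to cells in 96-well plates for 48 hours; endpoints were derived by simple linear interpolation of the resulting dose-response curve. The concentration for 50% growth inhibition is given as GI50.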 Activity calls are given as the source filed them. No stated cut-off is given here; in the data, active = GI50 up to about 1.1 µM and inactive = higher.

Take `C/C=C/C1(NS(=O)(=O)c2ccc(C)cc2)CCC(C(C)(C)C)CC1` (stereo not given): the GI50 in the assay on HOP-18 was 34.9 µM (inactive); with RXF 631, 24.7 µM (inactive); in the assay with DMS-273 it was 16 µM (inactive); in the assay on SNB-78, 25.6 µM (inactive); in the assay with M19-MEL, 19.7 µM (inactive); in the assay on KM-20L2, 20.1 µM (inactive). The GI50 with LXFL 529 is 37.5 µM (inactive); in the assay with XF498, 20.2 µM (inactive); in the assay on DMS-114 it was 27 µM (inactive).
Regarding `CC(C)(C)OC(=O)N[C@H]1CC2(C=C(Cl)C(=O)C(Cl)=C2)OC1=O`, the GI50 was 16.5 µM (inactive) in the assay with HOP-18; 16.6 µM (inactive) in the assay with RXF 631; 18.2 µM (inactive) with DMS-273; 19.6 µM (inactive) with SNB-78; 17.1 µM (inactive) in the assay with M19-MEL; 20.4 µM (inactive) in the assay with KM-20L2. The GI50 with LXFL 529 is 11.4 µM (inactive); with XF498 it was 19.3 µM (inactive).
Turning to `O=C(CCc1cc(-c2ccccc2)[nH]c(=S)n1)Nc1ccccc1[N+](=O)[O-]`, the GI50 with HOP-18, in the assay with RXF 631, with DMS-273, in the assay on SNB-78, in the assay with M19-MEL and in the assay on KM-20L2 was > 100 µM (inactive) throughout. The GI50 in the assay on LXFL 529 was > 100 µM (inactive); in the assay on XF498 it was 42 µM (inactive); with DMS-114, > 100 µM (inactive).
For `COc1cccc(C2N3CCCCC3[C@@H]3c4[nH]c5ccccc5c4CCN23)c1OC` (stereo not given in full), the GI50 is 17 µM (inactive) in the assay on HOP-18; 16.4 µM (inactive) with RXF 631; 16 µM (inactive) in the assay on DMS-273; 15.7 µM (inactive) in the assay on SNB-78; 15.9 µM (inactive) in the assay with M19-MEL; 14.3 µM (inactive) in the assay on KM-20L2. Moreover, the results for the GI50 in the assay with LXFL 529, in the assay on XF498 and with DMS-114 were 15.2 µM (inactive), 15.2 µM (inactive) and 15.5 µM (inactive), respectively.
Take `COc1ccc(CC2NCCc3cc(OC)c(OC)cc32)cc1` (stereo not given): the GI50 in the assay on HOP-18, in the assay with RXF 631, in the assay with DMS-273, in the assay with SNB-78, in the assay with M19-MEL and in the assay on KM-20L2 was > 100 µM (inactive) in each case. Besides, the GI50 is > 100 µM (inactive) in the assay with LXFL 529, > 100 µM (inactive) in the assay with XF498 and 59.6 µM (inactive) in the assay with DMS-114.
With `CCCCCCCCCCCCCC(=O)O[C@H]1CC[C@H](NC(=O)[C@H](OC)[C@H](O)[C@@H](O)[C@H](O)/C=C/C(C)C)C(=O)N(C)C1` [BENGAMIDE B], the GI50 in the assay with HOP-18 was 0.134 µM (active); in the assay with RXF 631 it was < 0.0015 µM (active); with DMS-273 it was < 0.0015 µM (active); with SNB-78 it was 0.173 µM (active); in the assay with M19-MEL, 0.00611 µM (active); with KM-20L2, 0.00577 µM (active). In addition, the results for the GI50 with LXFL 529, in the assay with XF498 and with DMS-114 were 0.0114 µM (active), 0.0164 µM (active) and 0.00284 µM (active), respectively.
`N#CCCN(c1ccc(/C=N/c2ccccc2Cl)cc1)S(=O)(=O)c1ccccc1`: the GI50 in the assay with HOP-18, in the assay on RXF 631, in the assay on DMS-273, in the assay on SNB-78, with M19-MEL and in the assay on KM-20L2 was > 100 µM (inactive) throughout. Moreover, the GI50 in the assay on LXFL 529, in the assay with XF498 and in the assay with DMS-114 was > 100 µM (inactive) in each case.
Consider `O=C(CC(=O)c1cccc([N+](=O)[O-])c1)C(=O)Nc1ccccc1`, for which the GI50 in the assay with HOP-18, in the assay with RXF 631, in the assay with DMS-273, in the assay on SNB-78, in the assay on M19-MEL and in the assay on KM-20L2 was > 100 µM (inactive) throughout. The GI50 in the assay on LXFL 529, in the assay with XF498 and with DMS-114 was > 100 µM (inactive) each time.
Consider `N#CC(Sc1ccccc1)C(N)=O` (stereo not given), for which the GI50 with HOP-18, in the assay with RXF 631, in the assay with DMS-273, in the assay with SNB-78, in the assay on M19-MEL and in the assay with KM-20L2 was > 100 µM (inactive) each time. The GI50 with LXFL 529, with XF498 and in the assay on DMS-114 was > 100 µM (inactive) throughout.
